Values of other authors as cited in paper PMC2714898 (European Journal of Clinical Pharmacology, 2009).

elimination half-life (t½) (averages, after oral AS) [h] | half-life [h] | SMILES
0.65 to 2.59 | – | C[C@H]1[C@@H](O)O[C@@H]2O[C@@]3(C)CC[C@H]4[C@H](C)CC[C@@H]1[C@@]24OO3 [Dihydroartemisinin (DHA), dihydroartemisinin]
– | 60 to 437 | CCNCc1cc(Nc2ccnc3cc(Cl)ccc23)ccc1O [Desethylamodiaquine (DEAQ), N-desethylamodiaquine]
